Data set [1] relates to Male Sprague-Dawley SPF rats. The settings on record: mean±SEM.
Procedure: Two groups of laboratory rats were used to perform two separate experiments (Experiments 1 and 2). Male Sprague-Dawley SPF rats (Charles River Laboratories, Wilmington, Ma.) weighing between 175-200 grams were used for each study. Rats were housed two per cage in a controlled-temperature (20-22° Celsius) room where they were exposed to a 12-hour light/dark cycle. Both groups of animals received food and either water or ethanol ad lib. Body weights were recorded on a weekly basis and fluid consumption was monitored in all groups for the duration of the study. The study was approved by the Louisiana State University Medical Center Institutional Animal Care and Use Committee.
(§1) Rats in the diabetic group were injected with streptozotocin (45 mg/kg) prepared in a 0.02 M sodium citrate solution (pH 4.5) via a tail vein to induce diabetes mellitus. Rats assigned to all other groups were injected with a similar volume of sodium citrate solution. Glycosylated hemoglobin (total) was measured in tail-vein blood in all rats within two days of echocardiographic examination using a commercially available kit (Sigma Chemical Co, St. Louis, Mo.).
(§2) Twenty-five rats were used in this experiment with five animals in each group.
All animals were anesthetized with a solution of ketamine-xylazine (50-mg/kg ketamine, 4-mg/kg xylazine, intraperitoneal) and the thoracic and upper abdominal areas shaved prior to echocardiography. The rats were positioned on a table for M-mode and two-dimensional echocardiograms. Studies were performed with a Toshiba Model 380 Echocardiography instrument (Toshiba America Medical Systems, Tustin, Calif.) using a 10 MHZ transducer calibrated with phantoms prior to use. Lateral resolution less than 0.20 mm within the ROI is achieved at the imaging depths used.
The conditions of data set [2]: mean±SEM; for Body weights at the time of echocardiographic examination: Experiment 1; for Body weights: Experiment 2, 10-weeks.
Procedure: Two groups of laboratory rats were used to perform two separate experiments (Experiments 1 and 2). Male Sprague-Dawley SPF rats (Charles River Laboratories, Wilmington, Ma.) weighing between 175-200 grams were used for each study. Rats were housed two per cage in a controlled-temperature (20-22° Celsius) room where they were exposed to a 12-hour light/dark cycle. Both groups of animals received food and either water or ethanol ad lib. Body weights were recorded on a weekly basis and fluid consumption was monitored in all groups for the duration of the study.
as §1, §2
The test system of data set [3] is Male Sprague-Dawley SPF rats. The settings on record: 10-week rats. As to the method:
In Experiment 2 (10-week), cardiac and renal tissues were harvested, rinsed in ice-cold physiologic saline, and then placed in 10% (v/v) formaldehyde solution in aqueous phosphate buffer (pH 7.4) (Mallinckrodt Inc., St. Louis, Mo.). Pancreatic tissue was harvested and fixed in buffered zinc-formaldehyde. Microscopic analysis were performed on H&E stained tissue slices.
Tissues from 10-week rats were analyzed using H&E staining. […] The degree of infiltration was evaluated qualitatively as none, few (1-4 cells per field), or marked infiltration.

Setting [4] is: Experiment 1 (5 Wks), diabetic rats, 4% ethanol.
[5] abbreviates: Experiment 1 (5 Wks), non-diabetic rats, 12% ethanol.
[6] abbreviates: Experiment 2 (10 Wks), diabetic rats, 4% ethanol.
The mark [7] stands for this setting: Experiment 2 (10 Wks), non-diabetic rats, 4% ethanol.
Where [8] appears, read: Experiment 2 (10 Wks), non-diabetic rats, 12% ethanol.
Setting [9] is: DE4 group (diabetic, 4% ethanol).
[10] abbreviates: E12 group (non-diabetic, 12% ethanol).

Like-named read-outs stand apart in the source and are kept apart here. Marks after values point to notes of the source that are not given here.

Turning to `CCO` [Ethanol, ethanol], the IVSD in data set [1] (setting [4]) is given as 0.120 ± 0.004 cm; in data set [1] (setting [5]) it was 0.130 ± 0.007 cm; in data set [1] (setting [6]), 0.105 ± 0.005 cm; in data set [1] (setting [7]), 0.126 ± 0.01^a cm; in data set [1] (setting [8]) it was 0.151 ± 0.004^b cm. Besides, the LVD in data set [1] (setting [4]) is 0.455 ± 0.027 cm; in data set [1] (setting [5]) it was 0.540 ± 0.027 cm; in data set [1] (setting [6]) it was 0.618 ± 0.032 cm; in data set [1] (setting [7]), 0.533 ± 0.033 cm; in data set [1] (setting [8]), 0.593 ± 0.018 cm. Moreover, the PWD is 0.143 ± 0.005 cm in data set [1] (setting [4]); 0.150 ± 0.003 cm in data set [1] (setting [5]); 0.125 ± 0.004^d cm in data set [1] (setting [6]); 0.155 ± 0.005^c cm in data set [1] (setting [7]); 0.159 ± 0.002^c cm in data set [1] (setting [8]). Further, the “Body weights at the time of echocardiographic examination” value in data set [2] (setting [9]) was 292±22 grams (g); in data set [2] (setting [10]), 301±11 grams (g). Besides, the Body weights in data set [2] (setting [9]) is 295 ± 16 g; in data set [2] (E4 group (non-diabetic, 4% ethanol)), 598 ± 29 g; in data set [2] (setting [10]), 581 ± 25 g. Moreover, the “Rats with clear cells, indicative of glycogen deposition, in the kidney” value in data set [3] (setting [9]) is on record as 60%. Moreover, the “Lymphocytic infiltrates in myocardial IVS on histologic examination” value in data set [3] (DE group (diabetic, 4% ethanol)) was “did not show infiltrates”; in data set [3] (E4 group, all animals, graded none, few (1-4 cells per field), marked), “marked lymphocytic infiltrates”; in data set [3] (E12 group, all animals, graded none, few (1-4 cells per field), marked), “marked lymphocytic infiltrates”.

Source of the values: patent publication US6415046B1, “Method and apparatus for the early detection of tissue pathology using wavelet transformation” (priority 1999, dated 2002).
